Among the data in US10829501B2 (BRISTOL-MYERS SQUIBB COMPANY, priority 2016, dated 2020) are IC50 values, retold here.

For this assay, the target named is ROCK2 (Homo sapiens, UniProt O75116). The assay is described as follows: ROCK2 kinase inhibition assay (LABCHIP 3000 Reader, FITC peptide substrate).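 Note: rho kinase reaction read by separating phosphorylated from unphosphorylated peptide on chip, with inhibition of kinase activity computed per concentration across a dose-response series.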
ROCK2, sequence (O75116 whole entry, species assumed): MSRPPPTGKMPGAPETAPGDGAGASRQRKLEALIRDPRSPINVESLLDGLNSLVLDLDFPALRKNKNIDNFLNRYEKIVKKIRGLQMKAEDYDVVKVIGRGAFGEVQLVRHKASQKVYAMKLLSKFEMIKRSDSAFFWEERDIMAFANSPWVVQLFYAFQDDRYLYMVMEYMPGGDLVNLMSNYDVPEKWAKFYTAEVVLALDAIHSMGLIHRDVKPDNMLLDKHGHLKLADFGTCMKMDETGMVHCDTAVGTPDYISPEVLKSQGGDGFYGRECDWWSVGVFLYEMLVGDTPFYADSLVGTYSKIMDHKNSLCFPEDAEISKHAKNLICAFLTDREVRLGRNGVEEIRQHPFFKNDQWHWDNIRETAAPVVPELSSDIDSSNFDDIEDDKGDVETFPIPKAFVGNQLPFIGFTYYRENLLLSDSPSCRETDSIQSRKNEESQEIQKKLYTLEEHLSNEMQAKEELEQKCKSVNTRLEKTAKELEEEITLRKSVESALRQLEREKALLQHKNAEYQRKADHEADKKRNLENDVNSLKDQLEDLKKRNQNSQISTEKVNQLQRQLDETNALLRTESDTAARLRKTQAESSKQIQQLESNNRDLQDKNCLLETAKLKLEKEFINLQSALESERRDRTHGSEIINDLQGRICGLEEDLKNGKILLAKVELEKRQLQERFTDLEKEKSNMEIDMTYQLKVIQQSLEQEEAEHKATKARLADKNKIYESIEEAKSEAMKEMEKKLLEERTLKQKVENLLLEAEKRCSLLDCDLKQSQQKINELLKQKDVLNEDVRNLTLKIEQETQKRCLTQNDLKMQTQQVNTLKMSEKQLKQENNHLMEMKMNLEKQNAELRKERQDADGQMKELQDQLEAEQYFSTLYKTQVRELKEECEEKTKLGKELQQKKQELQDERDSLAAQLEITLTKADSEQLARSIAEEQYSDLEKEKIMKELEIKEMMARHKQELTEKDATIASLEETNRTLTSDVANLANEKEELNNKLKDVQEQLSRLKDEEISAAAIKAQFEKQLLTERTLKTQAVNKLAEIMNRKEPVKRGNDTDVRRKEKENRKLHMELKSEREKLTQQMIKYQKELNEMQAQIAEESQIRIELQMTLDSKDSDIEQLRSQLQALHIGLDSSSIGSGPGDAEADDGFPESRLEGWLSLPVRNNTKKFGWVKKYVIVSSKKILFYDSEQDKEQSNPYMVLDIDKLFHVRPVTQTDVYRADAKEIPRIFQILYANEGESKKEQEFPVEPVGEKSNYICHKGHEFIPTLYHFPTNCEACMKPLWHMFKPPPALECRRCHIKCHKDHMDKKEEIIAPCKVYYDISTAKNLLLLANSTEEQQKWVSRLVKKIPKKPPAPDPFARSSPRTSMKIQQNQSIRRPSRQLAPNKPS

`NC(=O)c1cccnc1O[C@H]1CC2(C[C@H](NC(=O)c3cnc4cc(N5CCOCC5)ccn34)C2)C1` (stereo partly drawn) [Example 356, N-((aR)-6-((3-carbamoylpyridin-2-yl)oxy)spiro[3.3]heptan-2-yl)-7-morpholinoimidazo[1,2-a]pyridine-3-carboxamide] gave an IC50 of 5 to 50 nM.
In the case of `Cn1cc(-c2ccc3c(C(=O)N[C@H]4CC5(C4)C[C@H](Oc4ncccc4C(N)=O)C5)cnn3c2C2CC2)cn1` (stereo partly drawn) [Example 357, N-((aR)-6-((3-carbamoylpyridin-2-yl)oxy)spiro[3.3]heptan-2-yl)-7-cyclopropyl-6-(1-methyl-1H-pyrazol-4-yl)pyrazolo[1,5-a]pyridine-3-carboxamide], the IC50 was < 5 nM.
The figure for `NC(=O)c1cccnc1O[C@H]1CC2(C[C@H](NC(=O)c3cnc4cc(NCC(F)F)ccn34)C2)C1` (stereo partly drawn) [Example 358, N-((aR)-6-((3-carbamoylpyridin-2-yl)oxy)spiro[3.3]heptan-2-yl)-7-((2,2-difluoroethyl)amino)imidazo[1,2-a]pyridine-3-carboxamide] is 5 to 50 nM.
With `[H][C@]1(Oc2ncccc2C(N)=O)C[C@@]2(C[C@H](NC(=O)c3cnc4cc(N5CC(N)C5)ccn34)C2)C1` (stereo partly drawn) [Example 359, 7-(3-aminoazetidin-1-yl)-N-((aR)-6-((3-carbamoylpyridin-2-yl)oxy)spiro[3.3]heptan-2-yl)imidazo[1,2-a]pyridine-3-carboxamide] the figure was 50 to 250 nM; with `NC(=O)c1cccnc1O[C@H]1CC2(C[C@H](NC(=O)c3cnc4cc(OC5CC(F)(F)C5)ccn34)C2)C1` (stereo partly drawn) [Example 360, N-((aR)-6-((3-carbamoylpyridin-2-yl)oxy)spiro[3.3]heptan-2-yl)-7-(3,3-difluorocyclobutoxy)imidazo[1,2-a]pyridine-3-carboxamide], 5 to 50 nM; with `[H][C@]1(Oc2ncccc2C(N)=O)C[C@@]2(C[C@H](NC(=O)c3cnc4cc(Cl)ccn34)C2)C1` (stereo partly drawn) [Example 361, N-((aR)-6-((3-carbamoylpyridin-2-yl)oxy)spiro[3.3]heptan-2-yl)-7-chloroimidazo[1,2-a]pyridine-3-carboxamide], 50 to 250 nM.
The figure for `NC(=O)c1cccnc1O[C@H]1CC2(C[C@H](NC(=O)c3cnc4cc(N5CCS(=O)(=O)CC5)ccn34)C2)C1` (stereo partly drawn) [Example 362, N-((aR)-6-((3-carbamoylpyridin-2-yl)oxy)spiro[3.3]heptan-2-yl)-7-(1,1-dioxidothiomorpholino)imidazo[1,2-a]pyridine-3-carboxamide] is 50 to 250 nM.
On to `[2H]C([2H])([2H])n1cc(-c2ccc3c(C(=O)N[C@H]4CC5(C4)C[C@H](Oc4ncccc4C(N)=O)C5)nnn3c2)cn1` (stereo partly drawn) [Example 363, N-((aR)-6-((3-carbamoylpyridin-2-yl)oxy)spiro[3.3]heptan-2-yl)-6-(1-(^2H3)methyl-1H-pyrazol-4-yl)-[1,2,3]triazolo[1,5-a]pyridine-3-carboxamide], for which the IC50 was < 5 nM.
`NC(=O)c1cccnc1O[C@H]1CC2(C[C@H](NC(=O)c3nnn4cc(-c5cnn(C6CC6)c5)ccc34)C2)C1` (stereo partly drawn) [Example 364, N-((aR)-6-((3-carbamoylpyridin-2-yl)oxy)spiro[3.3]heptan-2-yl)-6-(1-cyclopropyl-1H-pyrazol-4-yl)-[1,2,3]triazolo[1,5-a]pyridine-3-carboxamide]: the IC50 is < 5 nM.
With `CC(C)(O)Cn1cc(-c2ccc3c(C(=O)N[C@H]4CC5(C4)C[C@H](Oc4ncccc4C(N)=O)C5)nnn3c2)cn1` (stereo partly drawn) [Example 365, N-((aR)-6-((3-carbamoylpyridin-2-yl)oxy)spiro[3.3]heptan-2-yl)-6-(1-(2-hydroxy-2-methylpropyl)-1H-pyrazol-4-yl)-[1,2,3]triazolo[1,5-a]pyridine-3-carboxamide] the figure was 5 to 50 nM.
Consider `CC(C)n1cc(-c2ccc3c(C(=O)N[C@H]4CC5(C4)C[C@H](Oc4ncccc4C(N)=O)C5)nnn3c2)c(C(F)(F)F)n1` (stereo partly drawn) [Example 366, N-((aR)-6-((3-carbamoylpyridin-2-yl)oxy)spiro[3.3]heptan-2-yl)-6-(1-isopropyl-3-(trifluoromethyl)-1H-pyrazol-4-yl)-[1,2,3]triazolo[1,5-a]pyridine-3-carboxamide], for which the IC50 was 5 to 50 nM.

As a reminder, the IC50 is the concentration at which inhibition is half-maximal. A higher IC50 goes with weaker potency.
